Assay results published in patent publication US8138194B2, “Fused bicyclic pyrimidine compounds as aurora kinase inhibitors” (National Health Research Institutes, priority 2008, dated 2012).
Several values for one entry are separate records, joined by “and”; a condition that tells them apart may be missing. Equal values may be shown once.

Columns and labels:
FLT3 = molecular target: T1, FLT3 (Homo sapiens, UniProt P36888); assay: Inhibition of other protein kinases: FLT3; type: biochemical
T1 sequence (P36888 27-993): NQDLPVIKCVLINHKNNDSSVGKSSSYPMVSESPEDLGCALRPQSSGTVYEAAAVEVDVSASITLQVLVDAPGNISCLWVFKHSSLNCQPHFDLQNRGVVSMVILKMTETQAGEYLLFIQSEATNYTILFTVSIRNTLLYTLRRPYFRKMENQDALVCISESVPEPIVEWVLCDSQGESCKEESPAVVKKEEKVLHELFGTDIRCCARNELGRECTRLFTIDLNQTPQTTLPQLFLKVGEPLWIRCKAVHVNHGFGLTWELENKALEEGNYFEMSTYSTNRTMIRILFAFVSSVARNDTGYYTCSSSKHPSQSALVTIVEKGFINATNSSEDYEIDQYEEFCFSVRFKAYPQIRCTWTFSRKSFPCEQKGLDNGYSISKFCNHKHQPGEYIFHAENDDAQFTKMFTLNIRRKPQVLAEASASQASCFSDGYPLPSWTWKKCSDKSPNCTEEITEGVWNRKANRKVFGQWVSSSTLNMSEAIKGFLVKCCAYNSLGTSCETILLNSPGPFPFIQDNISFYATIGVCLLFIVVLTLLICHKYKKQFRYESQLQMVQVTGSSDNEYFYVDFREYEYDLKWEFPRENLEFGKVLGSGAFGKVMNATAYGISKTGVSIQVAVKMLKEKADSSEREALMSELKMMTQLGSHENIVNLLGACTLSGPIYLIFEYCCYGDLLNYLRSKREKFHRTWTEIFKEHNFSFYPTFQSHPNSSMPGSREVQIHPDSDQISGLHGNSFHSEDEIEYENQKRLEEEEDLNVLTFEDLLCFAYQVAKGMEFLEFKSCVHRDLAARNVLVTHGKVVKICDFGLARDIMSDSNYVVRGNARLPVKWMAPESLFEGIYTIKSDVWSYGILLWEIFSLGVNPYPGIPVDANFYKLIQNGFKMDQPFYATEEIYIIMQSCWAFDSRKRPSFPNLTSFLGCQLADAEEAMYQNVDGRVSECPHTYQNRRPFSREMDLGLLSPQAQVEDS

HCT-116 cells = assay: HCT-116 cell viability MTS assay; type: cell-based; settings: Homo sapiens, read-out: IC50 (concentration of a test compound which causes 50% of the cell death); HCT-116, 96-h incubation, MTS
Procedure: HCT-116 cell viability was examined by the MTS assay (Promega, Madison, Wis., USA). 2000 HCT-116 cells in 100 μL McCoy's 5a medium were seeded in each well of a 96-well plate. After 96-h incubation with a test compound, the cells were incubated with 20 μL of a MTS/PMS mixture (MTS/PMS ratio: 20: 1) for 2 h at 37° C. in a humidified incubator with 5% CO2 to allow viable cells to convert the tetrazolium salt (MTS) into formazan. The amount/concentration of formazan, which indicates the number of live cells, was determined by measuring the absorbance at 490 nm using a PerkinElmer Victor2 plate reader (PerkinElmer, Shelton, Cont., USA).

PLK4 = molecular target: T2, PLK4 (Homo sapiens, UniProt O00444); assay: Inhibition of other protein kinases: PLK4; type: biochemical
T2 sequence (O00444 1-970): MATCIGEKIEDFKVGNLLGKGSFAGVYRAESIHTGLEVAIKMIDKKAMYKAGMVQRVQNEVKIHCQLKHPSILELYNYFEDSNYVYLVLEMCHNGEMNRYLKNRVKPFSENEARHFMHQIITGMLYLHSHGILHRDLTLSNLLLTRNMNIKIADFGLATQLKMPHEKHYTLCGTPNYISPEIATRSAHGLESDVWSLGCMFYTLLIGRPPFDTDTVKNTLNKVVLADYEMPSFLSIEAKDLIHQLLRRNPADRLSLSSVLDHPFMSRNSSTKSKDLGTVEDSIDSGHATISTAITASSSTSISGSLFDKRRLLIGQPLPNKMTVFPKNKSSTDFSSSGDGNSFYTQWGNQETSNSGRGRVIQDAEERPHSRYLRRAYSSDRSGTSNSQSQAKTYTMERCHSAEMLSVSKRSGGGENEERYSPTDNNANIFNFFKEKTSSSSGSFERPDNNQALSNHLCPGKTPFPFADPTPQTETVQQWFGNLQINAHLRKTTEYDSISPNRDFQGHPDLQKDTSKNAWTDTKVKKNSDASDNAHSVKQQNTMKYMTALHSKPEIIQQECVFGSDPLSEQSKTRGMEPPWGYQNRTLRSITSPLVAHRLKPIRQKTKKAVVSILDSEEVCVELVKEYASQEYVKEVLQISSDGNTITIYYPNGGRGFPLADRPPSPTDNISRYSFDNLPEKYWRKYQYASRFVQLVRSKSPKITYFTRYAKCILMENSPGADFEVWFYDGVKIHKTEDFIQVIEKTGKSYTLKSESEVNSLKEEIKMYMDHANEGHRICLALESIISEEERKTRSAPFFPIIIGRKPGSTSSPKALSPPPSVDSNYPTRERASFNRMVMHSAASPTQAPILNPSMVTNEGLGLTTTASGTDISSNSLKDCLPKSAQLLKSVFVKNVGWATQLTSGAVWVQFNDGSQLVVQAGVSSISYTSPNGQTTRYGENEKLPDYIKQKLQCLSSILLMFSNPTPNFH

[1] = molecular target: T3, GST-tAurora A (123-401aa) fusion protein (Homo sapiens, UniProt O14965); assay: Aurora Kinase A luminescent kinase assay; type: biochemical; settings: IC50 (concentration of a test compound at which activity of 50% of Aurora A is inhibited)
T3 construct: GST-tAurora A (123-401aa) fusion protein; made in house; host or cells: Sf9 insect cells (baculovirus, pBacPAK8)
T3 sequence (O14965 123-401): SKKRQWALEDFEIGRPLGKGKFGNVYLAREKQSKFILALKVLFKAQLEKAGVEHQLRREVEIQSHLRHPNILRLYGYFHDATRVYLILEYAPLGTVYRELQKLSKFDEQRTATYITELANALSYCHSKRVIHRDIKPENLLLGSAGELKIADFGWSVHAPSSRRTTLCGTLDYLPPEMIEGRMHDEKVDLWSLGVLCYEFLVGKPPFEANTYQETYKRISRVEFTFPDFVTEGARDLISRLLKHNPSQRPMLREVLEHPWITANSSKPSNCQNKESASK

PDGFRB = PDGFRB (Homo sapiens, UniProt P09619); assay: Inhibition of other protein kinases: PDGFRB; type: biochemical
Sequence of PDGFRB (P09619 33-1106, species assumed): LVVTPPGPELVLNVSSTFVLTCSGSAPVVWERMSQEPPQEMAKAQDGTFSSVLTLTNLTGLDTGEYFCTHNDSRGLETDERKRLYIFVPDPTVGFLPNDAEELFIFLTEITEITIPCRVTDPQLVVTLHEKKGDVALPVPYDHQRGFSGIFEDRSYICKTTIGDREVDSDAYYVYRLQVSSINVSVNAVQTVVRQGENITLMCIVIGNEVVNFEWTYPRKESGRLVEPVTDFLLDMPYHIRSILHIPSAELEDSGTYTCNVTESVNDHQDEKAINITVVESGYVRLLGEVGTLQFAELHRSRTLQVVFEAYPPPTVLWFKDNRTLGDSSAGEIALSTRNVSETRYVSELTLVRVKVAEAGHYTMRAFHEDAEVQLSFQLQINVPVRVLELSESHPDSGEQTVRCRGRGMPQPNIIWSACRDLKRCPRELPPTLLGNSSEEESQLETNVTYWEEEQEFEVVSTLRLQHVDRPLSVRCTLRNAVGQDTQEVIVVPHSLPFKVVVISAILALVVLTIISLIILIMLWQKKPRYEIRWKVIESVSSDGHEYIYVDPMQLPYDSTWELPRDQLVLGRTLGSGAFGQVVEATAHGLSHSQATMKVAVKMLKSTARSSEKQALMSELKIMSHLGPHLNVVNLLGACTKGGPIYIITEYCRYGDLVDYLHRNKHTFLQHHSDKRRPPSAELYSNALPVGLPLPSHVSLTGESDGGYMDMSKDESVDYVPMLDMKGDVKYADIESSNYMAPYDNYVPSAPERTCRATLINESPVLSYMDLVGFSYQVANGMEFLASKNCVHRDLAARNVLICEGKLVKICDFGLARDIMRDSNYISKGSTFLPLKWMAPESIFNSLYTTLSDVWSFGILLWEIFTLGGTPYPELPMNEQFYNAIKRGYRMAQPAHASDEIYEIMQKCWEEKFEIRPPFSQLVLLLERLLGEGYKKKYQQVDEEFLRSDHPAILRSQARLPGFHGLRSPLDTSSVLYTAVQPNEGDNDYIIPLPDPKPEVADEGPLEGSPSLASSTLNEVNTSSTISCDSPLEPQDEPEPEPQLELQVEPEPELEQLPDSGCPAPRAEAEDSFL

inhibits the activity of FLT3 (FLT3): inhibits
inhibits the activity of PLK4 (PLK4): inhibits
IC50 [1]: 0.045 to 0.4 µM and < 1 µM
inhibits the activity of PDGFRB (PDGFRB): inhibits
SMILES: O=C(Nc1ccccc1)Nc1ccc(CCNc2ncnc3oc(-c4ccccc4)c(Cl)c23)cc1 [Compound 82]
IC50 (HCT-116 cells): 0.1 to 0.9 µM
